The results in this text go back to patent US10577363B2, “Substituted piperidine compounds” (EPIZYME, INC., priority 2014, dated 2020).

For test [1], the target named is T1, SMYD3 (Homo sapiens (Human), UniProt Q9H7B4). The experiment in a line: SMYD3 biochemical assay (SPA, 3H-SAM methylation of MEKK2 protein substrate). To be noted: read-out: SMYD3 Biochem IC50*. In a few lines: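 Enzyme: untagged full-length human SMYD3 from E. coli; substrate GST-tagged MEKK2 from insect cells. Buffer 25 mM Tris-Cl pH 8.0, 1 mM TCEP, 0.005% BSG/Tween 20. 30 min compound–enzyme preincubation at RT; 3H-SAM/MEKK2 start; stop with cold SAM (100 uM final); SPA readout in cpm.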
T1 sequence (Q9H7B4 whole entry): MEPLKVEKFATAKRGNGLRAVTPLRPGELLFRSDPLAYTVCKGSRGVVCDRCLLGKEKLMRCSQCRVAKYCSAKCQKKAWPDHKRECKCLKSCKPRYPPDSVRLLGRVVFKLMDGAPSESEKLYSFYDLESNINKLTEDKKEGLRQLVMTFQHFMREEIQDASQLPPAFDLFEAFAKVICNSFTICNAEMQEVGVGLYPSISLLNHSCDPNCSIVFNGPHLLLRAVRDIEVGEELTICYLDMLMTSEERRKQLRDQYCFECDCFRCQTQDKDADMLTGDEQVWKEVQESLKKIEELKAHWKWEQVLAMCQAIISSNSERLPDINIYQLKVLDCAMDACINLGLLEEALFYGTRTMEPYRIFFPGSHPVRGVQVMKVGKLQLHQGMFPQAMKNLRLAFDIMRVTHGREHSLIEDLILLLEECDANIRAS

Test [2] deals with T1, SMYD3. Nature of the test: SMYD3 cell assay (Trimethyl-MEKK2 In-Cell Western in 293T/17 cells). The note with it: read-out: SMYD3 Cell IC50*. It counts as cell-based. The gist of the method: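 In-Cell Western readout: methanol-fixed cells stained for trimethyl-MEKK2 and flag tag, ratio per well normalized to DMSO and background controls.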

Structures are written as SMILES.

For orientation: IC50 means the concentration that gives 50% inhibition. Regarding `O=C(N[C@H]1C[C@H]2CC[C@@H](C1)N2S(=O)(=O)[C@H]1CC[C@@H](NCCO)CC1)c1cc(C2CC2)on1` [compound 767, 5-cyclopropyl-N-((1R,3R,5S)-8-(((1S,4S)-4-((2-hydroxyethyl)amino)cyclohexyl)sulfonyl)-8-azabicyclo[3.2.1]octan-3-yl)isoxazole-3-carboxamide], the IC50 at SMYD3 [1] came to 0.4 nM; on SMYD3 [2] it was 19.4 nM.
Taken in the same sequence, the figures for `O=C(N[C@H]1C[C@H]2CC[C@@H](C1)N2S(=O)(=O)[C@H]1CC[C@H](NCCO)CC1)c1cc(C2CC2)on1` [compound 768, 5-cyclopropyl-N-((1R,3R,5S)-8-(((1R,4R)-4-((2-hydroxyethyl)amino)cyclohexyl)sulfonyl)-8-azabicyclo[3.2.1]octan-3-yl)isoxazole-3-carboxamide] were 0.71 nM and 34.7 nM.
As to `O=C(N[C@H]1C[C@H]2CC[C@@H](C1)N2S(=O)(=O)N1CC2(CCN(CCc3ccccc3)CC2)C1)c1cc(C2CC2)on1` [compound 769, 5-cyclopropyl-N-((1R,3r,5S)-8-((7-phenethyl-2,7-diazaspiro[3.5]nonan-2-yl)sulfonyl)-8-azabicyclo[3.2.1]octan-3-yl)isoxazole-3-carboxamide], the results for the 50% inhibitory concentration (IC50) on SMYD3 [1] and on SMYD3 [2] were 0.76 nM and 17.9 nM, respectively.
The like results for `CN(C)[C@H]1CC[C@@H](S(=O)(=O)N2[C@@H]3CC[C@H]2C[C@@H](NC(=O)c2cc(C4CC4)on2)C3)CC1` [compound 771, 5-cyclopropyl-N-((1R,3R,5S)-8-(((1s,4S)-4-(dimethylamino)cyclohexyl)sulfonyl)-8-azabicyclo[3.2.1]octan-3-yl)isoxazole-3-carboxamide] were, in that order, 0.94 nM and 25.6 nM.
In the case of `C[C@H]1C[C@@H](NC(=O)c2cc(C3CC3)on2)CCN1S(=O)(=O)C[C@H]1CC[C@H](N)C1` [compound 772, N-((2S,4S)-1-((((1S,3S)-3-aminocyclopentyl)methyl)sulfonyl)-2-methylpiperidin-4-yl)-5-cyclopropylisoxazole-3-carboxamide], the IC50 on SMYD3 [1] was found to be 0.95 nM; on SMYD3 [2] it was 32.7 nM.
The like results for `C[C@H]1C[C@@H](NC(=O)c2cc(C3CC3)on2)CCN1S(=O)(=O)[C@H]1CC[C@H](N)CC1` [compound 773, N-((2S,4S)-1-(((1r,4S)-4-aminocyclohexyl)sulfonyl)-2-methylpiperidin-4-yl)-5-cyclopropylisoxazole-3-carboxamide] were, in that order, 1.03 nM and 17.7 nM.
As to `C[C@H]1C[C@@H](NC(=O)c2cc(C3CC3)on2)CCN1S(=O)(=O)N1CCC(C)(N)CC1` [compound 774, N-((2S,4S)-1-((4-amino-4-methylpiperidin-l-yl)sulfonyl)-2-methylpiperidin-4-yl)-5-cyclopropylisoxazole-3-carboxamide], the IC50 is 1.04 nM at SMYD3 [1] and 25.6 nM at SMYD3 [2].
`CC[C@@H]1C[C@H](NC(=O)c2cc(C3CC3)on2)CCN1S(=O)(=O)CC1CCN(C)CC1` [compound 775, 5-cyclopropyl-N-((2R,4R)-2-ethyl-1-(((1-methylpiperidin-4-yl)methyl)sulfonyl)piperidin-4-yl)isoxazole-3-carboxamide]: the half-maximal inhibitory concentration (IC50) on SMYD3 [1] was determined as 1.07 nM; on SMYD3 [2] it was 14.4 nM.
The like results for `O=C(N[C@H]1C[C@H]2CC[C@@H](C1)N2S(=O)(=O)[C@H]1CC[C@H](NCc2ccccc2)CC1)c1cc(C2CC2)on1` [compound 776, N-((1R,3R,5S)-8-(((1r,4R)-4-(benzylamino)cyclohexyl)sulfonyl)-8-azabicyclo[3.2.1]octan-3-yl)-5-cyclopropylisoxazole-3-carboxamide] were, in that order, 1.12 nM and 27.6 nM.
The like results for `CCC[C@@H]1C[C@H](NC(=O)c2cc(C3CC3)on2)CCN1S(=O)(=O)CC1CCN(C)CC1` [compound 777, 5-cyclopropyl-N-((2R,4R)-1-(((1-methylpiperidin-4-yl)methyl)sulfonyl)-2-propylpiperidin-4-yl)isoxazole-3-carboxamide] were, in that order, 1.14 nM and 17 nM.
With `O=C(N[C@H]1C[C@H]2CC[C@@H](C1)N2S(=O)(=O)CC1CCN(Cc2ccc(F)cc2)CC1)c1cc(C2CC2)on1` [compound 778, 5-cyclopropyl-N-((1R,3r,5S)-8-(((1-(4-fluorobenzyl)piperidin-4-yl)methyl)sulfonyl)-8-azabicyclo[3.2.1]octan-3-yl)isoxazole-3-carboxamide], the 50% inhibitory concentration (IC50) at SMYD3 [1] stood at 1.18 nM; at SMYD3 [2], 44.8 nM.
Taken in the same sequence, the figures for `CCc1cc(C(=O)N[C@H]2C[C@H]3CC[C@@H](C2)N3S(=O)(=O)CC2CCN(CCCC(F)(F)F)CC2)no1` [compound 779, 5-ethyl-N-((1R,3r,5S)-8-(((1-(4,4,4-trifluorobutyl)piperidin-4-yl)methyl)sulfonyl)-8-azabicyclo[3.2.1]octan-3-yl)isoxazole-3-carboxamide] were 1.2 nM and 28.1 nM.
The like results for `C[C@H]1C[C@@H](NC(=O)c2cc(C3CC3)on2)CCN1S(=O)(=O)N1CCC(N(C)CCO)CC1` [compound 780, 5-cyclopropyl-N-((2S,4S)-1-((4-((2-hydroxyethyl)(methyl)amino)piperidin-1-yl)sulfonyl)-2-methylpiperidin-4-yl)isoxazole-3-carboxamide] were, in that order, 1.21 nM and 23.9 nM.
Taken in the same sequence, the figures for `CCCN1CCC(CS(=O)(=O)N2[C@@H]3CC[C@H]2C[C@@H](NC(=O)c2cc(C4CC4)on2)C3)CC1` [compound 781, 5-cyclopropyl-N-((1R,3r,5S)-8-(((1-propylpiperidin-4-yl)methyl)sulfonyl)-8-azabicyclo[3.2.1]octan-3-yl)isoxazole-3-carboxamide] were 1.22 nM and 27 nM.
Turning to `CN1CCC2(CC1)CN(S(=O)(=O)N1[C@@H]3CC[C@H]1C[C@@H](NC(=O)c1cc(C4CC4)on1)C3)C2` [compound 782, 5-cyclopropyl-N-((1R,3r,5S)-8-((7-methyl-2,7-diazaspiro[3.5]nonan-2-yl)sulfonyl)-8-azabicyclo[3.2.1]octan-3-yl)isoxazole-3-carboxamide], the IC50 at SMYD3 [1] is 1.23 nM; on SMYD3 [2], 30.1 nM.
Taken in the same sequence, the figures for `C[C@H]1C[C@@H](NC(=O)c2cc(C3CC3)on2)CCN1S(=O)(=O)C1CCC(CN)C1` (stereo partly drawn) [compound 783, N-((2S,4S)-1-((3-(aminomethyl)cyclopentyl)sulfonyl)-2-methylpiperidin-4-yl)-5-cyclopropylisoxazole-3-carboxamide] were 1.24 nM and 51.7 nM.
Taken in the same sequence, the figures for `C[C@H]1C[C@@H](NC(=O)c2cc(C3CC3)on2)CCN1S(=O)(=O)C[C@@H]1CC[C@@H](N)C1` [compound 784, N-((2S,4S)-1-((((1R,3R)-3-aminocyclopentyl)methyl)sulfonyl)-2-methylpiperidin-4-yl)-5-cyclopropylisoxazole-3-carboxamide] were 1.29 nM and 39.3 nM.
Taken in the same sequence, the figures for `CCN1CCC(CS(=O)(=O)N2[C@@H]3CC[C@H]2C[C@@H](NC(=O)c2cc(C4CC4)on2)C3)CC1` [compound 785, 5-cyclopropyl-N-((1R,3r,5S)-8-(((1-ethylpiperidin-4-yl)methyl)sulfonyl)-8-azabicyclo[3.2.1]octan-3-yl)isoxazole-3-carboxamide] were 1.36 nM and 44.1 nM.
Take `CN[C@H]1CC[C@H](S(=O)(=O)N2[C@@H]3CC[C@H]2C[C@@H](NC(=O)c2cc(C4CC4)on2)C3)CC1` [compound 786, 5-cyclopropyl-N-((1R,3R,5S)-8-(((1r,4R)-4-(methylamino)cyclohexyl)sulfonyl)-8-azabicyclo[3.2.1]octan-3-yl)isoxazole-3-carboxamide]: the IC50 was 1.37 nM on SMYD3 [1] and 35.8 nM on SMYD3 [2].
Taken in the same sequence, the figures for `CC(C)N1CCC(CS(=O)(=O)N2[C@@H]3CC[C@H]2C[C@@H](NC(=O)c2cc(C4CC4)on2)C3)CC1` [compound 787, 5-cyclopropyl-N-((1R,3r,5S)-8-(((1-isopropylpiperidin-4-yl)methyl)sulfonyl)-8-azabicyclo[3.2.1]octan-3-yl)isoxazole-3-carboxamide] were 1.38 nM and 38.6 nM.
As for `CCc1cc(C(=O)N[C@H]2C[C@H]3CC[C@@H](C2)N3S(=O)(=O)[C@H]2CC[C@H](NCCO)CC2)no1` [compound 788, 5-ethyl-N-((1R,3R,5S)-8-(((1r,4R)-4-((2-hydroxyethyl)amino)cyclohexyl)sulfonyl)-8-azabicyclo[3.2.1]octan-3-yl)isoxazole-3-carboxamide], the IC50 at SMYD3 [1] turned out to be 1.42 nM; on SMYD3 [2] it was 30.8 nM.
The like results for `CCc1cc(C(=O)N[C@H]2C[C@H]3CC[C@@H](C2)N3S(=O)(=O)[C@H]2CC[C@H](N)CC2)no1` [compound 789, N-((1R,3R,5S)-8-(((1r,4R)-4-aminocyclohexyl)sulfonyl)-8-azabicyclo[3.2.1]octan-3-yl)-5-ethylisoxazole-3-carboxamide] were, in that order, 1.59 nM and 31.9 nM.
For `C[C@H]1CN(S(=O)(=O)[C@H]2CC[C@H](N)CC2)CC[C@H]1NC(=O)c1cc(C2CC2)on1` [compound 790, N-((3S,4R)-1-(((1r,4S)-4-aminocyclohexyl)sulfonyl)-3-methylpiperidin-4-yl)-5-cyclopropylisoxazole-3-carboxamide], the results for the IC50 on SMYD3 [1] and on SMYD3 [2] were 1.81 nM and 56 nM, respectively.
As to `O=C(N[C@H]1C[C@H]2CC[C@@H](C1)N2S(=O)(=O)N1CCC(NCCc2ccccc2)CC1)c1cc(C2CC2)on1` [compound 791, 5-cyclopropyl-N-((1R,3r,5S)-8-((4-(phenethylamino)piperidin-1-yl)sulfonyl)-8-azabicyclo[3.2.1]octan-3-yl)isoxazole-3-carboxamide], the IC50 was found to be 1.82 nM on SMYD3 [1] and 40.4 nM at SMYD3 [2].
